{"source": "patent US7612107B2", "about": "“Treatment and inhibition of disease conditions using flexible heteroarotinoids” (The Board of Regents of the University of Oklahoma, priority 2005, dated 2009)", "key": {"ovarian cancer cells": {"test_system": "ovarian cancer cells", "assay": "Microarray analysis of gene expression in SHetA2-treated ovarian cancer cells", "type": "cell-based, Homo sapiens", "description": "Microarray analysis was conducted to determine specific disease causing genes which were expressed at higher (>1 fold) or lower (<1 fold) levels than normal in ovarian cancer cells treated with SHetA2 (see Table 6)."}, "Raldh2-/- embryos": {"test_system": "Raldh2-/- embryos", "details": "for No. of −/− rescued / No. of −/− unrescued: E10.25; for Teratogenesis: mouse, in vivo, po", "description": "Briefly, retinoids were dissolved in corn oil and administered orally to timed-pregnant Raldh2_/_mice at 12-h intervals on E7.25, E7.75, and E8.25. Dosages varied from 0.025 to 25 mg/kg. At E10.25, embryos were analyzed morphologically to determine whether Raldh2_/_embryos were rescued or whether wild-type embryos had suffered teratogenesis. Detection of embryonic RA was performed in situ in embryos carrying the RARE-lacZ RA-reporter gene by staining for beta-galactosidase activity for 10 h (45).\nA mouse model that lacks retinaldehyde dehydrogenase (Raldh2) due to null mutations was used to test the ability of Flex-Hets to substitute for retinoic acid (RA) and induce birth defects. […] We examined the relative ability of all-trans-RA, 9-cis-RA, receptor-specific synthetic retinoids and retinoic acid receptor independent Flex-Hets to rescue the Raldh2_/_embryonic lethal phenotype."}, "[1]": {"test_system": "EAhy.926 endothelial cells", "assay": "Endothelial tube branching on matrigel", "type": "cell-based", "details": "1, 5 and 10 μM; 20 hours", "description": "(§1) The graph on the left provides quantification of the endothelial branches for each treatment dose.\n(§2) The increased thickness of the vessels at 1 μM and the increasing proportions of solitary clumps of cells at 5 and 10 μM indicate that SHetA2 is inhibiting endothelial cell migration. To determine if this anti-angiogenic activity was due to growth inhibition or cytotoxicity. The viability of the endothelial cells treated with SHetA2 for 24 hours was evaluated. […] This confirms the therapeutic ratio observed in previous studies."}, "[2]": {"test_system": "EAhy.926 endothelial cells", "assay": "Growth/viability of endothelial cells versus ovarian cancer cell lines", "type": "cell-based", "details": "24 hours", "description": "as §1, §2"}, "C6 glioma": {"test_system": "C6 glioma", "assay": "Rat glioma (brain cancer) model, MRI", "type": "in vivo", "details": "oral 60 mg/kg/day; vs untreated control", "description": "FIG. 9. SHetA2 inhibition of Angiogenesis. C6 glioma cells were injected into the brains of 2 rats. One week later, one rat was gavaged with 60 mg/kg/day SHetA2 on each Monday, Wednesday and Friday. Blood vessels were imaged by MRI.\nFIG. 10. […] C6 glioma cells were injected into the brains of 2 rats. One week later, one rat was gavaged with 60 mg/kg/day SHetA2 on each Monday, Wednesday and Friday. The blood flow was measured by MRI imaging.\nFIG. 11. SHetA2 inhibition of glioma tumor growth. C6 glioma cells were injected into the brains of 2 rats. One week later, one rat was gavaged with 60 mg/kg/day SHetA2 on each Monday, Wednesday and Friday. The tumor size was measured by MRI imaging.\nIn this in vivo model, glioma cells are injected into the brains of rats and the growth of the tumor and development of blood vessels in the tumor is measured by magnetic resonance imaging (MRI)."}}, "note": "Read-outs that look alike come from different tables or passages of the source."}
{"smiles": "CC1(C)CC(C)(C)c2cc(NC(=S)Nc3ccc([N+](=O)[O-])cc3)ccc2S1", "note": "[SHetA2]", "values": [{"measurement": "Fold: Endothelial cell growth factor 1 (platelet-derived)/Thymidine phosphorylase", "setting": "ovarian cancer cells; Genbank NM_001953", "result": 0.42, "unit": "Fold"}, {"measurement": "Fold: Figroblast growth factor 2 (basic)(FGF2)", "setting": "ovarian cancer cells; Genbank NM_002006.1", "result": 0.35, "unit": "Fold"}, {"measurement": "Fold: Promyelocytic leukemia (PML)", "setting": "ovarian cancer cells; Genbank NM_002675.1, Cancer", "result": 2.76, "unit": "Fold"}, {"measurement": "Fold: Transglutaminase 4 (prostate)", "setting": "ovarian cancer cells; Genbank NM_003241, Cancer", "result": 0.24, "unit": "Fold"}, {"measurement": "Fold: Thrombospondin 4", "setting": "ovarian cancer cells; Genbank NM_003248", "result": 0.58, "unit": "Fold"}, {"measurement": "Fold: Thromospondin 4 (THBS4)", "setting": "ovarian cancer cells; Genbank NM_03248.1", "result": 2.58, "unit": "Fold"}, {"measurement": "Fold: Dysferlin, limb girdle muscular dystrophy 2B (autosomal recessive) (DYSF)", "setting": "ovarian cancer cells; Genbank NM_003494.1, Skeletal Diseases", "result": 2.16, "unit": "Fold"}, {"measurement": "Fold: Peroxisomal biogenesis factor 3 (PEX3)", "setting": "ovarian cancer cells; Genbank NM_003630.1, Autoimmune Diseases", "result": 0.43, "unit": "Fold"}, {"measurement": "Fold: Fibroblast growth factor 18 (FGF18)", "setting": "ovarian cancer cells; Genbank NM_003862.1", "result": 2.75, "unit": "Fold"}, {"measurement": "Fold: Dystrophin (muscular dystrophy, Duchenne and Becker types), dystrophin Dp40 isoform (DMD)", "setting": "ovarian cancer cells; Genbank NM_004019.1, Skeletal Diseases", "result": 2.76, "unit": "Fold"}, {"measurement": "Fold: Vitelliform macular dystrophy (Best disease, bestrophin) (VMD2)", "setting": "ovarian cancer cells; Genbank NM_004183.1, Eye Diseases", "result": 0.28, "unit": "Fold"}, {"measurement": "Fold: Smcx homolog, X chromosome (mouse) in nonsyndromic X-linked mental retardation", "setting": "ovarian cancer cells; Genbank NM_004187, Neuromuscular Diseases", "result": 0.61, "unit": "Fold"}, {"measurement": "Fold: Enhancer of zeste (Drosophila) homolog 2 (EZH2) (USP14)", "setting": "ovarian cancer cells; Genbank NM_004456.1, Cancer", "result": 0.47, "unit": "Fold"}, {"measurement": "Fold: Peroxisomal biogenesis factor 14 (PEX14) in peroxisome biogenesis disorders", "setting": "ovarian cancer cells; Genbank NM_004565.1, Neuromuscular Diseases", "result": 2.06, "unit": "Fold"}, {"measurement": "Fold: ATP-binding cassette, sub-family D (ALD), member 2 (ABCD2) in X-linked adrenoleukodystrophy", "setting": "ovarian cancer cells; Genbank NM_005164.1, Neuromuscular Diseases", "result": 2.71, "unit": "Fold"}, {"measurement": "Fold: B-cell CLLlymphoma 3 (BCL3)", "setting": "ovarian cancer cells; Genbank NM_005178.1, Cancer", "result": 2.05, "unit": "Fold"}, {"measurement": "Fold: Neuroblastoma, suppression of tumorigenicity 1 (NBL1),", "setting": "ovarian cancer cells; Genbank NM_005380.1, Cancer", "result": 3.07, "unit": "Fold"}, {"measurement": "Fold: ATP-binding cassette, sub-family B (MDRTAP), member 6 (ABCB6), nuclear gene encoding mitochondrial protein", "setting": "ovarian cancer cells; Genbank NM_005689.1", "result": 0.46, "unit": "Fold"}, {"measurement": "Fold: N-cym protein", "setting": "ovarian cancer cells; Genbank NM_006316, Cancer", "result": 2.38, "unit": "Fold"}, {"measurement": "Fold: Translocase of inner mitochondrial membrane 44 (yeast) homolog (TIM44)", "setting": "ovarian cancer cells; Genbank NM_006351.1", "result": 0.50, "unit": "Fold"}, {"measurement": "Fold: Butyrophilin, subfamily 3, member A3 (BTN3A3)", "setting": "ovarian cancer cells; Genbank NM_006994.2, Autoimmune Diseases", "result": 2.04, "unit": "Fold"}, {"measurement": "Fold: Keratocan (KERA) involved in cornea plana", "setting": "ovarian cancer cells; Genbank NM_007035.2, Eye Diseases", "result": 0.50, "unit": "Fold"}, {"measurement": "Fold: Disintegrin-like and metalloprotease (reprolysin type) with thrombospondin type 1 motif (ADAMTS5)", "setting": "ovarian cancer cells; Genbank NM_007038.1", "result": 0.23, "unit": "Fold"}, {"measurement": "Fold: Angiopoietin-like 2 (ANGPTL2)", "setting": "ovarian cancer cells; Genbank NM_012098.1", "result": 2.16, "unit": "Fold"}, {"measurement": "Fold: Nasopharyngeal carcinoma susceptibility protein (LZ16)", "setting": "ovarian cancer cells; Genbank NM_013275.1, Cancer", "result": 0.41, "unit": "Fold"}, {"measurement": "Fold: Trichorhinophalangeal syndrome I gene (TRPS1)", "setting": "ovarian cancer cells; Genbank NM_014112.1, Skeletal Diseases", "result": 0.36, "unit": "Fold"}, {"measurement": "Fold: Rhabdoid tumor deletion region protein 1 (RTDR1)", "setting": "ovarian cancer cells; Genbank NM_014433.1, Cancer", "result": 2.20, "unit": "Fold"}, {"measurement": "Fold: Amyotrophic lateral sclerosis 2 (juvenile) chromosome region, candidate 3 (ALS2CR3)", "setting": "ovarian cancer cells; Genbank NM_015049.1, Neuromuscular Diseases", "result": 0.41, "unit": "Fold"}, {"measurement": "Fold: Chromosome 5 open reading frame 4 (C5ORF4), putative tumor suppressor", "setting": "ovarian cancer cells; Genbank NM_016348.1, Cancer", "result": 2.76, "unit": "Fold"}, {"measurement": "Fold: Niban protein (NIBAN) (Renal carcinogenesis)", "setting": "ovarian cancer cells; Genbank NM_022083.1, Cancer", "result": 0.21, "unit": "Fold"}, {"measurement": "Fold: RNA binding motif protein 5, putative tumor suppressor (LUCA15)", "setting": "ovarian cancer cells; Genbank U23946.1, Cancer", "result": 0.43, "unit": "Fold"}, {"measurement": "Fold: A kinase anchor protein S-AKAP84 mRNA, nuclear gene encoding mitochondrial protein", "setting": "ovarian cancer cells; Genbank U34074.1", "result": 2.14, "unit": "Fold"}, {"measurement": "Fold: Unknown protein mRNA within the p53 intron 1", "setting": "ovarian cancer cells; Genbank U58658.1, Cancer", "result": 0.45, "unit": "Fold"}, {"measurement": "Rescue of Raldh2−/− embryos (in words)", "setting": "Raldh2-/- embryos; 2.5 mg/kg", "result": "no rescue"}, {"measurement": "Rescue of Raldh2−/− embryos (in words)", "setting": "Raldh2-/- embryos; 10 or 25 mg/kg", "result": "no rescue"}, {"measurement": "No. of −/− rescued", "setting": "Raldh2-/- embryos; Dose 2.5 mg/kg oral", "result": 0}, {"measurement": "No. of −/− unrescued", "setting": "Raldh2-/- embryos; Dose 2.5 mg/kg oral", "result": 1}, {"measurement": "No. of −/− rescued", "setting": "Raldh2-/- embryos; Dose 10 mg/kg oral", "result": 0}, {"measurement": "No. of −/− unrescued", "setting": "Raldh2-/- embryos; Dose 10 mg/kg oral", "result": 5}, {"measurement": "No. of −/− rescued", "setting": "Raldh2-/- embryos; Dose 25 mg/kg oral", "result": 0}, {"measurement": "No. of −/− unrescued", "setting": "Raldh2-/- embryos; Dose 25 mg/kg oral", "result": 1}, {"measurement": "Teratogenesis", "setting": "Raldh2-/- embryos; 2.5 mg/kg", "result": 0}, {"measurement": "Teratogenesis", "setting": "Raldh2-/- embryos; 10 mg/kg", "result": 0}, {"measurement": "Teratogenesis", "setting": "Raldh2-/- embryos; 25 mg/kg", "result": 0}, {"measurement": "Inhibition of angiogenesis: endothelial tube branching", "setting": "[1]", "result": "dose-responsive inhibition"}, {"measurement": "Growth inhibition of endothelial cells compared with A2780 and OVCAR-3", "setting": "[2]", "result": "much less growth inhibited"}, {"measurement": "Angiogenesis of glioma tumors (MRI)", "setting": "C6 glioma", "result": "inhibited the angiogenesis"}, {"measurement": "Growth of glioma tumors (MRI)", "setting": "C6 glioma", "result": "inhibited the angiogenesis and growth of the tumors"}]}
